Reference: patent US7709471B2, “Compounds” (AstraZeneca AB, priority 2006, dated 2010)

Biological target: recombinant Plk1 (Homo sapiens, UniProt P53350)
Test: In Vitro Plk1 Enzyme Assay (SPA, GST-Cdc25C phosphorylation)
Format: biochemical
Settings: ATP 64 nM, 90 minutes, read-out: IC50 (Plk1 enzyme inhibition)

Chain of recombinant Plk1 (P53350 whole entry): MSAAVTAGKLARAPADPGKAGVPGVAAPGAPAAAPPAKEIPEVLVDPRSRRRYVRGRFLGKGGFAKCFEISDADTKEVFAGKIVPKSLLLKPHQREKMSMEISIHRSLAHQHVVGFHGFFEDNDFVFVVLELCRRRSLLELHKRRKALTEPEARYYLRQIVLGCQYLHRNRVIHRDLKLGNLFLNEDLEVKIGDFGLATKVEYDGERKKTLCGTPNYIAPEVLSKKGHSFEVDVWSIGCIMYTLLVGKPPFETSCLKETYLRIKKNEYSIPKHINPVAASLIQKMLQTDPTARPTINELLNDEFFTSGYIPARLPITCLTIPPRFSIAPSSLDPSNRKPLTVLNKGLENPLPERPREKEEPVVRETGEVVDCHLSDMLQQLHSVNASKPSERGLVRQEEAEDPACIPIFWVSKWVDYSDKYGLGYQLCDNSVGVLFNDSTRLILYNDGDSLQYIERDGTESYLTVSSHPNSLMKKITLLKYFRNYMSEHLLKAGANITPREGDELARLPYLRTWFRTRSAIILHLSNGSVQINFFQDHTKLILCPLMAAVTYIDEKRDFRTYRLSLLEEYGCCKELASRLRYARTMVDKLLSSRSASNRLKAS

| Molecule | IC50 [µM] |
| --- | --- |
| CN1C(=O)CCN(C2CCCC2)c2nc(Nc3ccccc3Oc3ccccc3)ncc21 [Example 146, 6-cyclopentyl-2-methyl-9-[(2-phenoxyphenyl)amino]-2,6,8,10-tetrazabicyclo[5.4.0]undeca-8,10,12-trien-3-one] | < 100 |
| CN1C(=O)CCN(C2CCCC2)c2nc(Nc3ccccc3NCCN3CCOCC3)ncc21 [Example 156, 6-cyclopentyl-2-methyl-9-[[2-(2-morpholin-4-ylethylamino)phenyl]amino]-2,6,8,10-tetrazabicyclo[5.4.0]undeca-8,10,12-trien-3-one] | < 100 |
| CCOc1cccc(Nc2ncc3c(n2)N(C2CCCC2)CCC(=O)N3C)c1 [Example 162, 6-cyclopentyl-9-[(3-ethoxyphenyl)amino]-2-methyl-2,6,8,10-tetrazabicyclo[5.4.0]undeca-8,10,12-trien-3-one] | < 1 |
| COc1cc(C(=O)NCCN2CCOCC2)ccc1Nc1ncc2c(n1)N(C1CCCC1)CCC(=O)N2 [Example 250, 4-[(6-cyclopentyl-3-oxo-2,6,8,10-tetrazabicyclo[5.4.0]undeca-8,10,12-trien-9-yl)amino]-3-methoxy-N-(2-morpholin-4-ylethyl)benzamide] | < 1 |
| CN1C(=O)CCN(C2CCCC2)c2nc(Nc3ccccc3C(=O)c3ccccc3)ncc21 [Example 144, 9-[(2-benzoylphenyl)amino]-6-cyclopentyl-2-methyl-2,6,8,10-tetrazabicyclo[5.4.0]undeca-8,10,12-trien-3-one] | < 100 |
| CN1C(=O)CCN(C2CCCC2)c2nc(Nc3ccc(Cl)nc3)ncc21 [Example 266, 9-[(6-chloropyridin-3-yl)amino]-6-cyclopentyl-2-methyl-2,6,8,10-tetrazabicyclo[5.4.0]undeca-8,10,12-trien-3-one] | < 100 |
| CN1C(=O)c2cccc(Nc3ncc4c(n3)N(C3CCCC3)CCC(=O)N4C)c2C1=O [Example 137, 4-[(6-cyclopentyl-2-methyl-3-oxo-2,6,8,10-tetrazabicyclo[5.4.0]undeca-8,10,12-trien-9-yl)amino]-2-methyl-isoindole-1,3-dione] | < 100 |
| CN(C)CC(C)(C)CNC(=O)c1ccc(Nc2ncc3c(n2)N(c2ccccc2)CCC(=O)N3C)c(Cl)c1 [Example 225, 3-chloro-N-(3-dimethylamino-2,2-dimethyl-propyl)-4-[(2-methyl-3-oxo-6-phenyl-2,6,8,10-tetrazabicyclo[5.4.0]undeca-8,10,12-trien-9-yl)amino]benzamide] | < 1 |
| COc1cc(C(=O)NC2CCN(C)CC2)ccc1Nc1ncc2c(n1)N(CC(C)C)CCC(=O)N2C [Example 211, 3-methoxy-4-[[2-methyl-6-(2-methylpropyl)-3-oxo-2,6,8,10-tetrazabicyclo[5.4.0]undeca-7,9,11-trien-9-yl]amino]-N-(1-methyl-4-piperidyl)benzamide] | < 0.3 |
| COc1ccc(Nc2ncc3c(n2)N(C2CCCC2)CCC(=O)N3C)cn1 [Example 267, 6-cyclopentyl-9-[(6-methoxypyridin-3-yl)amino]-2-methyl-2,6,8,10-tetrazabicyclo[5.4.0]undeca-8,10,12-trien-3-one] | < 1 |
| 6-cyclopentyl-9-[[5-(3-dimethylaminopyrrolidin-1-yl)-2-methoxy-phenyl]amino]-2-methyl-2,6,8,10-tetrazabicyclo[5.4.0]undeca-8,10,12-trien-3-one [Example 182] | < 1 |
| CN1C(=O)CCN(C2CCCC2)c2nc(Nc3ccccc3O)ncc21 [Example 142, 6-cyclopentyl-9-[(2-hydroxyphenyl)amino]-2-methyl-2,6,8,10-tetrazabicyclo[5.4.0]undeca-8,10,12-trien-3-one] | < 0.3 |
| CN1C(=O)CCN(C2CCCC2)c2nc(Nc3ccccc3CN3CCOCC3)ncc21 [Example 160, 6-cyclopentyl-2-methyl-9-[[2-(morpholin-4-ylmethyl)phenyl]amino]-2,6,8,10-tetrazabicyclo[5.4.0]undeca-8,10,12-trien-3-one] | < 100 |
| CN1C(=O)CCN(C2CCCC2)c2nc(Nc3cccc(S(=O)(=O)N4CCOCC4)c3)ncc21 [Example 183, 6-cyclopentyl-2-methyl-9-[(3-morpholin-4-ylsulfonylphenyl)amino]-2,6,8,10-tetrazabicyclo[5.4.0]undeca-8,10,12-trien-3-one] | < 100 |
| COc1ccccc1Nc1ncc2c(n1)N(C1CCCC1)CCC(=O)N2C [Example 139, 6-cyclopentyl-9-[(2-methoxyphenyl)amino]-2-methyl-2,6,8,10-tetrazabicyclo[5.4.0]undeca-8,10,12-trien-3-one] | < 1 |
| CCNS(=O)(=O)c1ccccc1Nc1ncc2c(n1)N(C1CCCC1)CCC(=O)N2C [Example 154, 2-[(6-cyclopentyl-2-methyl-3-oxo-2,6,8,10-tetrazabicyclo[5.4.0]undeca-8,10,12-trien-9-yl)amino]-N-ethyl-benzenesulfonamide] | < 100 |
| C#Cc1cccc(Nc2ncc3c(n2)N(C2CCCC2)CCC(=O)N3C)c1 [Example 168, 6-cyclopentyl-9-[(3-ethynylphenyl)amino]-2-methyl-2,6,8,10-tetrazabicyclo[5.4.0]undeca-8,10,12-trien-3-one] | < 100 |

| Molecule | IC50 [µM] |
| --- | --- |
| COc1cc(C(=O)NC2CCN(C)CC2)ccc1Nc1ncc2c(n1)N(Cc1c(C)noc1C)CCC(=O)N2C [Example 273, 4-[[2-[(3,5-dimethyl-1,2-oxazol-4-yl)methyl]-6-methyl-5-oxo-2,6,9,11-tetrazabicyclo[5.4.0]undeca-7,9,11-trien-10-yl]amino]-3-methoxy-N-(1-methyl-4-piperidyl)benzamide] | < 100 |
| CC(C)c1cccc(Nc2ncc3c(n2)N(C2CCCC2)CCC(=O)N3C)c1 [Example 174, 6-cyclopentyl-2-methyl-9-[(3-propan-2-ylphenyl)amino]-2,6,8,10-tetrazabicyclo[5.4.0]undeca-8,10,12-trien-3-one] | < 100 |
| CCOc1ccccc1Nc1ncc2c(n1)N(C1CCCC1)CCC(=O)N2C [Example 140, 6-cyclopentyl-9-[(2-ethoxyphenyl)amino]-2-methyl-2,6,8,10-tetrazabicyclo[5.4.0]undeca-8,10,12-trien-3-one] | < 100 |
| CN1C(=O)CCN(C2CCCC2)c2nc(Nc3ccccc3Oc3ccc(C(C)(C)C)cc3)ncc21 [Example 153, 6-cyclopentyl-2-methyl-9-[[2-(4-tert-butylphenoxy)phenyl]amino]-2,6,8,10-tetrazabicyclo[5.4.0]undeca-8,10,12-trien-3-one] | < 100 |
| CN1C(=O)CCN(C2CCCC2)c2nc(Nc3ccccc3Br)ncc21 [Example 147, 9-[(2-bromophenyl)amino]-6-cyclopentyl-2-methyl-2,6,8,10-tetrazabicyclo[5.4.0]undeca-8,10,12-trien-3-one] | < 100 |
| CN1C(=O)CCN(C2CCCC2)c2nc(Nc3ccc(S(=O)(=O)NCCO)cc3)ncc21 [Example 117, 4-[(6-cyclopentyl-2-methyl-3-oxo-2,6,8,10-tetrazabicyclo[5.4.0]undeca-8,10,12-trien-9-yl)amino]-N-(2-hydroxyethyl)benzenesulfonamide] | < 100 |
| 6-cyclopentyl-2-methyl-9-[(2,4,6-trimethoxyphenyl)amino]-2,6,8,10-tetrazabicyclo[5.4.0]undeca-8,10,12-trien-3-one [Example 112] | < 1 |
| CC(C)NC(=O)c1ccc(Nc2ncc3c(n2)N(C2CCCC2)CCC(=O)N3C)cc1 [Example 100, 4-[(6-cyclopentyl-2-methyl-3-oxo-2,6,8,10-tetrazabicyclo[5.4.0]undeca-8,10,12-trien-9-yl)amino]-N-propan-2-yl-benzamide] | < 0.3 |
| COc1cc(Nc2ncc3c(n2)N(C2CCCC2)CCC(=O)N3C)cc(OC)c1OC [Example 129, 6-cyclopentyl-2-methyl-9-[(3,4,5-trimethoxyphenyl)amino]-2,6,8,10-tetrazabicyclo[5.4.0]undeca-8,10,12-trien-3-one] | < 1 |
| CN1C(=O)CCN(C2CCCC2)c2nc(Nc3ccc(C#N)c(C(F)(F)F)c3)ncc21 [Example 116, 4-[(6-cyclopentyl-2-methyl-3-oxo-2,6,8,10-tetrazabicyclo[5.4.0]undeca-8,10,12-trien-9-yl)amino]-2-(trifluoromethyl)benzonitrile] | < 100 |
| CN1C(=O)CCN(C2CCCC2)c2nc(Nc3cccc(CNC(=O)OC(C)(C)C)c3)ncc21 [Example 136, tert-butyl N-[[3-[(6-cyclopentyl-2-methyl-3-oxo-2,6,8,10-tetrazabicyclo[5.4.0]undeca-8,10,12-trien-9-yl)amino]phenyl]methyl]carbamate] | < 100 |
| CN(C)CC(C)(C)CNC(=O)c1ccc(Nc2ncc3c(n2)N(C2CCCC2)CCC(=O)N3)c(Cl)c1 [Example 255, 3-chloro-4-[(6-cyclopentyl-3-oxo-2,6,8,10-tetrazabicyclo[5.4.0]undeca-8,10,12-trien-9-yl)amino]-N-(3-dimethylamino-2,2-dimethyl-propyl)benzamide] | < 100 |
| COc1cccc(Nc2ncc3c(n2)N(C2CCCC2)CCC(=O)N3C)c1 [Example 161, 6-cyclopentyl-9-[(3-methoxyphenyl)amino]-2-methyl-2,6,8,10-tetrazabicyclo[5.4.0]undeca-8,10,12-trien-3-one] | < 1 |
| CCN1C(=O)CCN(C2CCCC2)c2nc(Nc3ccc(C(=O)NC4CCN(C)CC4)cc3OC)ncc21 [Example 259, 4-[(6-cyclopentyl-2-ethyl-3-oxo-2,6,8,10-tetrazabicyclo[5.4.0]undeca-8,10,12-trien-9-yl)amino]-3-methoxy-N-(1-methyl-4-piperidyl)benzamide] | < 1 |
| COC(=O)[C@H]1CC[C@@H](NC(=O)c2ccc(Nc3ncc4c(n3)N(C3CCCC3)CCC(=O)N4C)c(OC)c2)C1 [Example 65, Methyl(1S,3R)-3-[[4-[(6-cyclopentyl-2-methyl-3-oxo-2,6,8,10-tetrazabicyclo[5.4.0]undeca-8,10,12-trien-9-yl)amino]-3-methoxy-benzoyl]amino]cyclopentane-1-carboxylate] | < 1 |
| 6-cyclopentyl-2-methyl-9-[(2,3,4-trimethoxyphenyl)amino]-2,6,8,10-tetrazabicyclo[5.4.0]undeca-8,10,12-trien-3-one [Example 130] | < 1 |
